Where two headings read alike, the source gives them in different places.
Biological target: recombinant 15-PGDH (Homo sapiens (Human), UniProt P15428)
Test: Enzyme inhibition of recombinant 15-PGDH, in vitro assay
Type: biochemical
[1] = recombinant human 15-PGDH, read-out: Enzyme inhibition (IC50)

Chain of recombinant 15-PGDH (P15428 whole entry): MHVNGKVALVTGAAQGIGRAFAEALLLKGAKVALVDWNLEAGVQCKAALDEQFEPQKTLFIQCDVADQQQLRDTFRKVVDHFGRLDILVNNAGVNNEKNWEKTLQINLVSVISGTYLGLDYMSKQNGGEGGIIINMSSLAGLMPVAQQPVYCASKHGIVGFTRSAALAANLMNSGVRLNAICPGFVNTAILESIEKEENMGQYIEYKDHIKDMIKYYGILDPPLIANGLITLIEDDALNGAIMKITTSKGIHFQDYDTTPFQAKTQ

SMILES | IC50 [1] [nM] | IC50 [nM]
CCCC[S+]([O-])c1cc2nc(-c3ccc(OC)cc3)cc(-c3cncnc3)n2n1 (centres unmarked) [52a] | 2500 | 
O=C(NCc1ccccc1)c1ccc2nc(-c3ccccc3)c(-c3ccccc3)nc2c1 [15b] | > 2500 | 
CCCC[S+]([O-])c1nc2nc(-c3ccc(OC)cc3)cc(C(F)(F)F)n2n1 (centres unmarked) [49a] | > 2500 | 
CCCC[S+]([O-])c1cc2nc(-c3ccc(OC)cc3)cc(-c3c(C)nn(C)c3C)n2n1 (centres unmarked) [74a] | 20 to 100 | 
COc1ccc(-c2cc(C(F)(F)F)n3nc(C(=O)N4CCC(CO)CC4)cc3n2)cc1 [16a] | < 100 | 
O=C(c1cc2nc(N3CCCCC3)cc(C(F)(F)F)n2n1)N1CCCCC1 [39a] | 660 | 
COc1ccc(-c2cc(C(F)(F)F)n3nc(C(=O)N4CCCC(C(F)F)C4)cc3n2)cc1 (centres unmarked) [66a] | 20 to 100 | 
COc1ccc(-c2cc(-c3ccc(F)nc3)n3nc(C(=O)N4CCCCC4)cc3n2)cc1 [27a] | > 500 | 
Cn1cc(-c2nc3cc(C(=O)N4CCCCC4)ccc3nc2-c2ccccc2)cn1 [37b] | 20 to 100 | 
CNc1cc(-c2ccc(OC)cc2)nc2cc(C(=O)N3CCCCC3)nn12 [31a] | 20 to 100 | 
O=C(c1cc2nc(-c3cccs3)cc(C(F)(F)F)n2n1)N1CCCCC1 [42a] | > 2500 | 
COc1ccc(-c2cc(N(C)C)n3nc(C(=O)N4CCCCC4)cc3n2)cc1 [32a] | 33.4 | 
COc1ccc(-c2cc(-c3ccccc3)n3nc(C(=O)N4CCCCC4)cc3n2)cc1 [34a] | > 500 | 
CCCCSc1ccc2nc(-c3ccccc3)c(-c3ccccc3)nc2c1 [2b] | > 2500 | 
CCCCSc1cc2nc(-c3ccc(OC)cc3)cc(C(F)(F)F)n2n1 [2a, 2-(butylthio)-5-(4-methoxyphenyl)-7-(trifluoromethyl)pyrazolo[1,5-a]pyrimidine] | > 2500 | 
O=C(c1ccc2nc(-c3ccccc3)c(-c3ccccc3)nc2c1)N1CCCCC1CO (centres unmarked) [26b] | 100 to 500 | 
O=C(NCCO)c1ccc2nc(-c3ccccc3)c(-c3ccccc3)nc2c1 [17b] | > 2500 | 
O=C(c1cc2nc(-c3ccc(C(F)(F)F)cc3)cc(C(F)(F)F)n2n1)N1CCCCC1 [47a] | > 2500 | 
COc1ccc(-c2cc(C(F)(F)F)n3nc(C(=O)N4CCCCC4CO)cc3n2)cc1 (centres unmarked) [17a] | < 100 | 
COc1ccc(-c2cc(C(F)(F)F)n3nc(C(=O)N4CCCCCC4)cc3n2)cc1 [11a] | 18.9 | 
CC1CCCCN1C(=O)c1ccc2nc(-c3ccccc3)c(-c3ccccc3)nc2c1 (centres unmarked) [29b] | 100 to 500 | 
COc1ccc(-c2cc(C3CC3)n3nc(C(=O)N4CCCCC4)cc3n2)cc1 [67a] | 4 to 20 | 

SMILES | IC50 [1] [nM] | IC50 [nM]
CCCC[S+]([O-])c1cc2nc(-c3ccc(OC)cc3)cc(-c3cnc(C)n3C)n2n1 (centres unmarked) [70a] | 100 to 500 | 
COc1ccc(-c2cc(-c3cccn3C)n3nc(C(=O)N4CCCCC4)cc3n2)cc1 [71a] | 20 to 100 | 
CCCC[S+]([O-])c1nc2nc(-c3nccs3)cc(C(F)(F)F)n2n1 (centres unmarked) [50a] | > 2500 | 
C=CCNC(=O)c1ccc2nc(-c3ccccc3)c(-c3ccccc3)nc2c1 [19b] | > 2500 | 
COc1ccc(-c2cc(C(F)(F)F)n3nc(C(=O)N4CCOCC4)cc3n2)cc1 [10a] | 100 to 500 | 
COc1ccc(-c2cc(C(F)(F)F)n3nc(C(=O)N4CCC(C)CC4)cc3n2)cc1 [18a] | 30.6 | 
O=C(c1ccc2ncc(-c3ccc(F)cc3)nc2c1)N1CCCCC1 [42b] | 4 to 20 | 
O=C(c1ccc2nc(-c3ccccc3)c(-c3cncnc3)nc2c1)N1CCCCC1 [36b] | 20 to 100 | 
O=C(c1ccc2ncc(-c3ccc4c(=O)[nH]cc(Cl)c4c3)nc2c1)N1CCCCC1 [92b] | < 4 | 
CNC(=O)c1[nH]c2ccc(-c3cnc4ccc(C(=O)N5CCCCC5)cc4n3)cc2c1C [94b] | < 4 | 
COc1ccc(-c2cc(C(F)(F)F)n3nc(C(=O)N4CCCCC4C)cc3n2)cc1 (centres unmarked) [20a] | 33 | 
COc1ccc(-c2cc(C(F)(F)F)n3nc(C(=O)N4CCC(OC)CC4)cc3n2)cc1 [21a] | 100 to 500 | 
COc1ccc(-c2cc(C(F)(F)F)n3nc(C(=O)N4CCC(=O)CC4)cc3n2)cc1 [13a] |  | 500 to 2500
Cn1cc(-c2cc(C(F)(F)F)n3nc(C(=O)N4CCCCC4)cc3n2)cn1 [38a] | > 2500 | 
O=C(c1cc2nc(-c3ccc(Cl)cc3)cc(C(F)(F)F)n2n1)N1CCCCC1 [56a] | > 2500 | 
COc1ccc(-c2cc(C(F)(F)F)n3nc(C(=O)N4CCCC(=O)C4)cc3n2)cc1 [62a] | 500 to 2500 | 
CC1CCCN(C(=O)c2cc3nc(-c4ccc(Cl)cc4)cc(C(F)(F)F)n3n2)C1 (centres unmarked) [75a] | 20 to 100 | 
COc1ccc(-c2cc(N3CCCCC3)n3nc(C(=O)N4CCCCC4)cc3n2)cc1 [44a] | 500 | 
Cc1ccc(-c2cc(C(F)(F)F)n3nc(C(=O)N4CCCCC4)cc3n2)cc1 [40a] | 395 | 
COc1ccc(-c2cc(C(F)(F)F)n3nc(C(=O)N4CC(C)CC(C)C4)cc3n2)cc1 (centres unmarked) [57a] | 100 | 
COc1ccc(-c2cc(C(F)(F)F)n3nc(C(=O)N4CCC(C(F)(F)F)CC4)cc3n2)cc1 [60a] | 500 to 2500 | 
O=C(c1ccc2nc(-c3ccccc3)c(-c3cccnc3)nc2c1)N1CCCCC1 [33b] | 20 | 

SMILES | IC50 [1] [nM] | IC50 [nM]
O=C(c1cc2nc(-c3ccc(F)cc3)cc(C(F)(F)F)n2n1)N1CCCCC1 [36a] | 30.7 | 
CCCC[S+]([O-])c1cc2nc(-c3ccc(OC)cc3)cc(-c3cn(C)nc3C)n2n1 (centres unmarked) [73a] | 500 | 
O=C(c1ccc2nc(-c3ccccc3)[nH]c2c1)N1CCCCC1 [32b] | 100 to 500 | 
CCCC[S+]([O-])c1cc2nc(-c3nccs3)cc(C(F)(F)F)n2n1 (centres unmarked) [48a] | 20 to 100 | 
COc1ccc(-c2cc(-c3cccnc3)n3nc(C(=O)N4CCCCC4)cc3n2)cc1 [23a] | ~100 | 
Nc1nc2ccc(-c3cnc4ccc(C(=O)N5CCCCC5)cc4n3)cc2s1 [95b] | < 4 | 
COc1ccc(-c2cc(-c3ccccn3)n3nc(C(=O)N4CCCCC4)cc3n2)cc1 [24a] | 20 to 100 | 
O=C(c1cc2nc(-c3ccccc3C(F)(F)F)cc(C(F)(F)F)n2n1)N1CCCCC1 [43a] | > 2500 | 
Cc1cc(-c2nc3cc(C(=O)N4CCCCC4)ccc3nc2-c2ccccc2)ccn1 [38b] | 20 | 
CC(C)(O)Cn1ccc2cc(-c3cnc4ccc(C(=O)N5CCCCC5)cc4n3)ccc2c1=O [89b] | ~4 | 
Cc1c(C(N)=O)[nH]c2ccc(-c3cnc4ccc(C(=O)N5CCCCC5)cc4n3)cc12 [93b] | < 4 | 
CCCCS(=O)(=O)c1ccc2nc(-c3ccccc3)c(-c3ccccc3)nc2c1 [4b] | > 2500 | 
COc1ccc(-c2cc(-c3ccnc(Cl)c3)n3nc(C(=O)N4CCCCC4)cc3n2)cc1 [25a] | > 100 | 
COc1ccc(-c2cc(C(F)(F)F)n3nc(C(=O)N4CCCC(C(F)(F)F)C4)cc3n2)cc1 (centres unmarked) [64a] | 100 to 500 | 
COc1ccc(-c2cc(C)n3nc(C(=O)N4CCCCC4)cc3n2)cc1 [35a] | 100 | 
COc1ccc(-c2cc(-c3ccncc3Cl)n3nc(C(=O)N4CCCCC4)cc3n2)cc1 [26a] | ~500 | 
CCCC[S+]([O-])c1nc2nc(-c3ccc(OC)cc3)cc(-c3ccccc3)n2n1 (centres unmarked) [55a] | > 2500 | 
CCCC[S+]([O-])c1cc2nc(-c3ccc(OC)cc3)cc(-c3cccnc3)n2n1 (centres unmarked) [51a] | 500 to 2500 | 
COc1ccc(-c2cc(C(F)(F)F)n3nc(C(=O)N4CCC(F)CC4)cc3n2)cc1 [15a] | 42 | 
O=C(c1cc2nc(-c3ccc(O)cc3)cc(C(F)(F)F)n2n1)N1CCCCC1 [68a] | > 2500 | 
COc1ccc(-c2cc(-c3ccnc(F)c3)n3nc(C(=O)N4CCCCC4)cc3n2)cc1 [30a] | 20 to 100 | 

— US11718589B2, “Compositions and methods of modulating short-chain dehydrogenase” (CASE WESTERN RESERVE UNIVERSITY, priority 2017, dated 2023)
